Measured values published in patent publication US20230114728A1 (Venatorx Pharmaceuticals, Inc., priority 2019, published 2023).
In brackets after ≈: the same amount, converted by molar mass. Where two headings read alike, the source gives them in different places.

Legend:
[1] = Bocillin-FL fluorescence polarization competition binding assay, A. baumannii PBP3; conditions: fluorescence polarization competition binding assay using Bocillin-FL; column 3; read-out: 4. baumannii PBP1a Potency
How it was run: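 A. baumannii PBP2 (2.5 μM) and PBP3 (0.2 μM) were run in 25 mM Tris pH 8.0 buffer with Tween 20; E. coli PBP3 (1.5 μM) and N. gonorrhoeae PBP2 ([…]) in 50 mM Hepes pH 8.0 buffer.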

[2] = test system: N. gonorrhoeae WHO G; experiment: Liquid broth MIC in Fastidious broth; type: cell-based; conditions: Neisseria gonorrhoeae, read-out: Minimum Inhibitory Concentration, N. gonorrhoeae WHO G
How it was run: (§1)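 Colonies were swabbed from chocolate agar after 24 h growth and standardised by optical density at 600 nm. Compounds were serially diluted twofold in Fastidious broth, and bacteria added to give 5×10^5 CFU/mL. After about 24 h at 36 °C in 5% CO2, the lowest concentration allowing under 10% growth was taken as MIC.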

[3] = test system: N. gonorrhoeae H041; experiment: Liquid broth MIC in Fastidious broth; type: cell-based; conditions: Neisseria gonorrhoeae, H041, read-out: Minimum Inhibitory Concentration, N. gonorrhoeae H041
How it was run: (§2)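 Broth microdilution against gonococcal strains expressing mosaic PBP2, starting inoculum 5×10^5 CFU/mL in Fastidious broth. Incubation runs ~24 h at 36 °C under 5% CO2, with MIC scored visually at <10% of full growth.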

[4] = test system: N. gonorrhoeae WHO L; experiment: Liquid broth MIC in Fastidious broth; type: cell-based; conditions: Neisseria gonorrhoeae, read-out: Minimum Inhibitory Concentration, N. gonorrhoeae WHO L
How it was run: as §1

[5] = test system: N. gonorrhoeae ATCC 49226; experiment: Liquid broth MIC in Fastidious broth; type: cell-based; conditions: Neisseria gonorrhoeae, ATCC49226; N. gonorrhoeae strain ATCC 49226; Fastidious broth; read-out: Minimum Inhibitory Concentration, N. gonorrhoeae ATCC 49226
How it was run: as §1

[6] = test system: N. gonorrhoeae WHO K; experiment: Liquid broth MIC in Fastidious broth; type: cell-based; conditions: Neisseria gonorrhoeae, read-out: Minimum Inhibitory Concentration, N. gonorrhoeae WHO K
How it was run: as §2

[7] = test system: N. gonorrhoeae FA1090; experiment: Liquid broth MIC in Fastidious broth; type: cell-based; conditions: Neisseria gonorrhoeae; N. gonorrhoeae strain FA1090; Fastidious broth; read-out: Minimum Inhibitory Concentration, N. gonorrhoeae FA1090
How it was run: as §1

[8] = test system: N. gonorrhoeae WHO Z; experiment: Liquid broth MIC in Fastidious broth; type: cell-based; conditions: Neisseria gonorrhoeae, read-out: Minimum Inhibitory Concentration, N. gonorrhoeae WHO Z
How it was run: as §2

[9] = test system: N. gonorrhoeae WHO Q; experiment: Liquid broth MIC in Fastidious broth; type: cell-based; conditions: Neisseria gonorrhoeae, read-out: Minimum Inhibitory Concentration, N. gonorrhoeae WHO Q
How it was run: as §2

[10] = N. gonorrhoeae strain WHO G, Fastidious broth
[11] = N. gonorrhoeae strain WHO L, Fastidious broth

Compound	EC50 [1]	MIC [2, 10]	MIC [3]	MIC [4, 11]	MIC [5]	MIC [6]	MIC [7]	MIC [2]	MIC [4]	MIC [8]	MIC [9]
NCCCN1CCN(C(=O)N[C@@H](C(=O)N[C@H]2Cc3ccc(F)c(C(=O)O)c3OB2O)c2c(F)cc(O)c(O)c2F)C(=O)C1=O (single isomer, unassigned) [Example 41]	30 to 100 µM	16 to 32 µg/mL (≈ 25.7 to 51.3 µM)	> 64 µg/mL	> 64 µg/mL	16 to 32 µg/mL (≈ 25.7 to 51.3 µM)	> 64 µg/mL	4 to 8 µg/mL (≈ 6.42 to 12.8 µM)	–	–	–	–
NCCN1CCN(C(=O)N[C@@H](C(=O)N[C@H]2Cc3ccc(F)c(C(=O)O)c3OB2O)c2c(F)cc(O)c(O)c2Cl)C(=O)C1=O (single isomer, unassigned) [Example 26]	30 to 100 µM	> 64 µg/mL	> 64 µg/mL	> 64 µg/mL	> 64 µg/mL	> 64 µg/mL	16 to 32 µg/mL (≈ 25.6 to 51.1 µM)	–	–	–	–
CCN1CCN(C(=O)NC(C(=O)N[C@H]2Cc3ccc(F)c(C(=O)O)c3OB2O)c2cc(F)c(O)c(O)c2Cl)C(=O)C1=O (stereo partly drawn) [Example 42, (3R)-3-(2-(2-chloro-5-fluoro-3,4-dihydroxyphenyl)-2-(4-ethyl-2,3-dioxopiperazine-1-carboxamido)acetamido)-7-fluoro-2-hydroxy-3,4-dihydro-2H-benzo[e][1,2]oxaborinine-8-carboxylic acid]	30 to 100 µM	16 to 32 µg/mL (≈ 26.2 to 52.4 µM)	16 to 32 µg/mL (≈ 26.2 to 52.4 µM)	> 64 µg/mL	16 to 32 µg/mL (≈ 26.2 to 52.4 µM)	16 to 32 µg/mL (≈ 26.2 to 52.4 µM)	4 to 8 µg/mL (≈ 6.55 to 13.1 µM)	–	–	–	–
NCCN1CCN(C(=O)N[C@@H](C(=O)N[C@H]2Cc3ccc(F)c(C(=O)O)c3OB2O)c2c(F)cc(O)c(O)c2F)C(=O)C1=O (single isomer, unassigned) [Example 40]	> 100 µM	16 to 32 µg/mL (≈ 26.3 to 52.5 µM)	> 64 µg/mL	> 64 µg/mL	16 to 32 µg/mL (≈ 26.3 to 52.5 µM)	> 64 µg/mL	4 to 8 µg/mL (≈ 6.57 to 13.1 µM)	–	–	–	–
NCCCN1CCN(C(=O)N[C@@H](C(=O)N[C@H]2Cc3ccc(F)c(C(=O)O)c3OB2O)c2c(F)cc(O)c(O)c2Cl)C(=O)C1=O (single isomer, unassigned) [Example 27]	30 to 100 µM	16 to 32 µg/mL (≈ 25 to 50 µM)	> 64 µg/mL	> 64 µg/mL	> 64 µg/mL	> 64 µg/mL	16 to 32 µg/mL (≈ 25 to 50 µM)	–	–	–	–
O=C(NC(C(=O)N[C@H]1Cc2ccc(F)c(C(=O)O)c2OB1O)c1ncc(O)cc1F)c1ccc(O)c(O)c1Cl (stereo partly drawn) [Example 8, (3R)-3-(2-(2-chloro-3,4-dihydroxybenzamido)-2-(3-fluoro-5-hydroxypyridin-2-yl)acetamido)-7-fluoro-2-hydroxy-3,4-dihydro-2H-benzo[e][1,2]oxaborinine-8-carboxylic acid]	> 100 µM	16 to 32 µg/mL (≈ 28.4 to 56.8 µM)	> 64 µg/mL	> 64 µg/mL	> 64 µg/mL	> 64 µg/mL	4 to 8 µg/mL (≈ 7.1 to 14.2 µM)	–	–	–	–
O=C(O)c1c(F)ccc2c1OB(O)[C@@H](NC(=O)C(NC(=O)N1CCN(CCBr)C(=O)C1=O)c1c(F)cc(O)c(O)c1F)C2 (stereo partly drawn) [Example 38, (3R)-3-(2-(4-(2-bromoethyl)-2,3-dioxopiperazine-1-carboxamido)-2-(2,6-difluoro-3,4-dihydroxyphenyl)acetamido)-7-fluoro-2-hydroxy-3,4-dihydro-2H-benzo[e][1,2]oxaborinine-8-carboxylic acid]	10 to 30 µM	–	> 64 µg/mL	–	16 to 32 µg/mL (≈ 23.8 to 47.5 µM)	> 64 µg/mL	4 to 8 µg/mL (≈ 5.94 to 11.9 µM)	16 to 32 µg/mL (≈ 23.8 to 47.5 µM)	> 64 µg/mL	–	–
O=C(O)c1c(F)ccc2c1OB(O)[C@@H](NC(=O)[C@H](NC(=O)N1CCNC1=O)c1c(F)cc(O)c(O)c1Cl)C2 (single isomer, unassigned) [Example 34]	> 100 µM	16 to 32 µg/mL (≈ 28.8 to 57.7 µM)	> 64 µg/mL	> 64 µg/mL	16 to 32 µg/mL (≈ 28.8 to 57.7 µM)	> 64 µg/mL	4 to 8 µg/mL (≈ 7.21 to 14.4 µM)	–	–	–	–
CCN1CCN(C(=O)NC(C(=O)N[C@H]2Cc3ccc(C=O)c(C(=O)O)c3OB2O)c2csc(N)n2)C(=O)C1=O (stereo partly drawn) [Example 57, (3R)-3-(2-(2-aminothiazol-4-yl)-2-(4-ethyl-2,3-dioxopiperazine-1-carboxamido)acetamido)-7-formyl-2-hydroxy-3,4-dihydro-2H-benzo[e][1,2]oxaborinine-8-carboxylic acid]	–	16 to 32 µg/mL (≈ 28.7 to 57.3 µM)	> 64 µg/mL	> 64 µg/mL	16 to 32 µg/mL (≈ 28.7 to 57.3 µM)	> 64 µg/mL	4 to 8 µg/mL (≈ 7.16 to 14.3 µM)	–	–	> 64 µg/mL	> 64 µg/mL
CCN1CCN(C(=O)NC(C(=O)N[C@H]2Cc3cccc(C(=O)O)c3OB2O)c2cccc(NS(N)(=O)=O)c2)C(=O)C1=O (stereo partly drawn) [Example 98, (3R)-3-(2-(4-ethyl-2,3-dioxopiperazine-1-carboxamido)-2-(3-(sulfamoylamino)phenyl)acetamido)-2-hydroxy-3,4-dihydro-2H-benzo[e][1,2]oxaborinine-8-carboxylic acid]	–	1 to 2 µg/mL (≈ 1.66 to 3.32 µM)	16 to 32 µg/mL (≈ 26.6 to 53.1 µM)	> 64 µg/mL	16 to 32 µg/mL (≈ 26.6 to 53.1 µM)	16 to 32 µg/mL (≈ 26.6 to 53.1 µM)	0.25 to 0.5 µg/mL (≈ 0.415 to 0.83 µM)	–	–	16 to 32 µg/mL (≈ 26.6 to 53.1 µM)	16 to 32 µg/mL (≈ 26.6 to 53.1 µM)
CCN1CCN(C(=O)NC(C(=O)N[C@H]2Cc3cccc(C(=O)O)c3OB2O)c2cccc(S(N)(=O)=O)c2)C(=O)C1=O (stereo partly drawn) [Example 99, (3R)-3-(2-(4-ethyl-2,3-dioxopiperazine-1-carboxamido)-2-(3-sulfamoylphenyl)acetamido)-2-hydroxy-3,4-dihydro-2H-benzo[e][1,2]oxaborinine-8-carboxylic acid]	–	1 to 2 µg/mL (≈ 1.7 to 3.4 µM)	16 to 32 µg/mL (≈ 27.2 to 54.5 µM)	> 64 µg/mL	16 to 32 µg/mL (≈ 27.2 to 54.5 µM)	16 to 32 µg/mL (≈ 27.2 to 54.5 µM)	0.25 to 0.5 µg/mL (≈ 0.426 to 0.851 µM)	–	–	16 to 32 µg/mL (≈ 27.2 to 54.5 µM)	16 to 32 µg/mL (≈ 27.2 to 54.5 µM)
CCN1CCN(C(=O)NC(C(=O)N[C@H]2Cc3cccc(C(=O)O)c3OB2O)c2cccc(NS(C)(=O)=O)c2)C(=O)C1=O (stereo partly drawn) [Example 76, (3R)-3-(2-(4-ethyl-2,3-dioxopiperazine-1-carboxamido)-2-(3-(methylsulfonamido)phenyl)acetamido)-2-hydroxy-3,4-dihydro-2H-benzo[e][1,2]oxaborinine-8-carboxylic acid]	–	16 to 32 µg/mL (≈ 26.6 to 53.2 µM)	> 64 µg/mL	> 64 µg/mL	> 64 µg/mL	> 64 µg/mL	1 to 2 µg/mL (≈ 1.66 to 3.33 µM)	–	–	> 64 µg/mL	> 64 µg/mL
CCN1CCN(C(=O)NC(C(=O)N[C@H]2Cc3cccc(C(=O)O)c3OB2O)c2ccc(C(N)=O)c(O)c2)C(=O)C1=O (stereo partly drawn) [Example 45, (3R)-3-(2-(4-carbamoyl-3-hydroxyphenyl)-2-(4-ethyl-2,3-dioxopiperazine-1-carboxamido)acetamido)-2-hydroxy-3,4-dihydro-2H-benzo[e][1,2]oxaborinine-8-carboxylic acid]	–	0.25 to 0.5 µg/mL (≈ 0.441 to 0.881 µM)	16 to 32 µg/mL (≈ 28.2 to 56.4 µM)	16 to 32 µg/mL (≈ 28.2 to 56.4 µM)	1 to 2 µg/mL (≈ 1.76 to 3.53 µM)	16 to 32 µg/mL (≈ 28.2 to 56.4 µM)	< 0.125 µg/mL	–	–	16 to 32 µg/mL (≈ 28.2 to 56.4 µM)	16 to 32 µg/mL (≈ 28.2 to 56.4 µM)
CCN1CCN(C(=O)N[C@H](C(=O)N[C@H]2Cc3cccc(C(=O)O)c3OB2O)c2cc(O)cc(O)c2)C(=O)C1=O (single isomer, unassigned) [Example 81]	–	0.25 to 0.5 µg/mL (≈ 0.463 to 0.925 µM)	16 to 32 µg/mL (≈ 29.6 to 59.2 µM)	16 to 32 µg/mL (≈ 29.6 to 59.2 µM)	4 to 8 µg/mL (≈ 7.4 to 14.8 µM)	16 to 32 µg/mL (≈ 29.6 to 59.2 µM)	0.25 to 0.5 µg/mL (≈ 0.463 to 0.925 µM)	–	–	16 to 32 µg/mL (≈ 29.6 to 59.2 µM)	16 to 32 µg/mL (≈ 29.6 to 59.2 µM)
NCCN1CCN(C(=O)NC(C(=O)N[C@H]2Cc3cccc(C(=O)O)c3OB2O)c2cc(Cl)c(O)cc2F)C(=O)C1=O (stereo partly drawn) [Example 87, (3R)-3-(2-(4-(2-aminoethyl)-2,3-dioxopiperazine-1-carboxamido)-2-(5-chloro-2-fluoro-4-hydroxyphenyl)acetamido)-2-hydroxy-3,4-dihydro-2H-benzo[e][1,2]oxaborinine-8-carboxylic acid]	–	4 to 8 µg/mL (≈ 6.76 to 13.5 µM)	> 64 µg/mL	16 to 32 µg/mL (≈ 27 to 54.1 µM)	16 to 32 µg/mL (≈ 27 to 54.1 µM)	> 64 µg/mL	0.25 to 0.5 µg/mL (≈ 0.422 to 0.845 µM)	–	–	> 64 µg/mL	> 64 µg/mL
